Measured values taken from the NIST ThermoML archive (doi:10.1007/s10765-012-1261-6).
Where “and” joins values, the source holds several entries; their conditions need not be identical. Equal values may be shown once. Numbers after ± are expanded uncertainties.

Conditions: Closed cell (Static) method

O [water]
vapor or sublimation pressure (249.29 K, Crystal): 0.07045 ± 0.02 kPa
vapor or sublimation pressure (249.35 K, Crystal): 0.07242 ± 0.02 kPa
vapor or sublimation pressure (250.11 K, Crystal): 0.08146 ± 0.02 kPa
vapor or sublimation pressure (252.96 K, Crystal): 0.09665 ± 0.02 kPa
vapor or sublimation pressure (253.02 K, Crystal): 0.1036 ± 0.02 kPa and 0.1016 ± 0.02 kPa
vapor or sublimation pressure (253.59 K, Crystal): 0.1049 ± 0.02 kPa
vapor or sublimation pressure (257.86 K, Crystal): 0.1607 ± 0.02 kPa
vapor or sublimation pressure (258.04 K, Crystal): 0.1642 ± 0.02 kPa and 0.1567 ± 0.02 kPa
vapor or sublimation pressure (258.05 K, Crystal): 0.165 ± 0.02 kPa
vapor or sublimation pressure (262.84 K, Crystal): 0.2552 ± 0.02 kPa
vapor or sublimation pressure (262.98 K, Crystal): 0.2629 ± 0.021 kPa and 0.2541 ± 0.021 kPa
vapor or sublimation pressure (263 K, Crystal): 0.2517 ± 0.02 kPa
vapor or sublimation pressure (267.85 K, Crystal): 0.4157 ± 0.021 kPa
vapor or sublimation pressure (267.91 K, Crystal): 0.4036 ± 0.021 kPa
vapor or sublimation pressure (267.93 K, Crystal): 0.392 ± 0.021 kPa
vapor or sublimation pressure (267.99 K, Crystal): 0.423 ± 0.021 kPa
vapor or sublimation pressure (272.87 K, Liquid): 0.6049 ± 0.022 kPa
vapor or sublimation pressure (272.98 K, Liquid): 0.6038 ± 0.022 kPa
vapor or sublimation pressure (273.02 K, Liquid): 0.6135 ± 0.022 kPa
vapor or sublimation pressure (277.94 K, Liquid): 0.8666 ± 0.023 kPa
vapor or sublimation pressure (277.95 K, Liquid): 0.8493 ± 0.023 kPa
vapor or sublimation pressure (277.97 K, Liquid): 0.8679 ± 0.023 kPa
vapor or sublimation pressure (278.01 K, Liquid): 0.8712 ± 0.023 kPa
vapor or sublimation pressure (278.07 K, Liquid): 0.8686 ± 0.023 kPa
vapor or sublimation pressure (282.91 K, Liquid): 1.211 ± 0.025 kPa
vapor or sublimation pressure (282.94 K, Liquid): 1.215 ± 0.025 kPa
vapor or sublimation pressure (282.95 K, Liquid): 1.197 ± 0.025 kPa
vapor or sublimation pressure (283.03 K, Liquid): 1.224 ± 0.025 kPa
vapor or sublimation pressure (288 K, Liquid): 1.687 ± 0.028 kPa
vapor or sublimation pressure (292.84 K, Liquid): 2.295 ± 0.033 kPa
vapor or sublimation pressure (293.03 K, Liquid): 2.307 ± 0.024 kPa
vapor or sublimation pressure (293.1 K, Liquid): 2.337 ± 0.033 kPa
vapor or sublimation pressure (302.8 K, Liquid): 4.162 ± 0.044 kPa
vapor or sublimation pressure (303.07 K, Liquid): 4.214 ± 0.038 kPa and 4.238 ± 0.048 kPa
vapor or sublimation pressure (303.1 K, Liquid): 4.235 ± 0.044 kPa
vapor or sublimation pressure (312.8 K, Liquid): 7.248 ± 0.063 kPa
vapor or sublimation pressure (313.11 K, Liquid): 7.367 ± 0.063 kPa
vapor or sublimation pressure (313.12 K, Liquid): 7.372 ± 0.064 kPa
vapor or sublimation pressure (313.16 K, Liquid): 7.386 ± 0.063 kPa
vapor or sublimation pressure (317 K, Liquid): 9.084 ± 0.08 kPa
vapor or sublimation pressure (322.82 K, Liquid): 12.15 ± 0.086 kPa
vapor or sublimation pressure (323.13 K, Liquid): 12.33 ± 0.094 kPa
vapor or sublimation pressure (323.14 K, Liquid): 12.33 ± 0.093 kPa
vapor or sublimation pressure (323.19 K, Liquid): 12.34 ± 0.086 kPa
vapor or sublimation pressure (328.15 K, Liquid): 15.75 ± 0.12 kPa
vapor or sublimation pressure (332.83 K, Liquid): 19.63 ± 0.13 kPa
vapor or sublimation pressure (333.18 K, Liquid): 19.94 ± 0.14 kPa and 19.95 ± 0.14 kPa
vapor or sublimation pressure (333.24 K, Liquid): 19.97 ± 0.13 kPa
vapor or sublimation pressure (338.19 K, Liquid): 25.06 ± 0.17 kPa
vapor or sublimation pressure (342.81 K, Liquid): 30.69 ± 0.21 kPa
vapor or sublimation pressure (343.21 K, Liquid): 31.24 ± 0.21 kPa
vapor or sublimation pressure (343.22 K, Liquid): 31.24 ± 0.21 kPa
vapor or sublimation pressure (343.28 K, Liquid): 31.27 ± 0.19 kPa
vapor or sublimation pressure (348.23 K, Liquid): 38.65 ± 0.25 kPa
vapor or sublimation pressure (352.81 K, Liquid): 46.65 ± 0.31 kPa
vapor or sublimation pressure (353.23 K, Liquid): 47.47 ± 0.31 kPa
vapor or sublimation pressure (353.24 K, Liquid): 47.46 ± 0.3 kPa
vapor or sublimation pressure (353.31 K, Liquid): 47.53 ± 0.28 kPa
vapor or sublimation pressure (358.25 K, Liquid): 57.93 ± 0.35 kPa
vapor or sublimation pressure (362.79 K, Liquid): 68.98 ± 0.47 kPa
vapor or sublimation pressure (363.24 K, Liquid): 70.36 ± 0.48 kPa
vapor or sublimation pressure (363.26 K, Liquid): 70.26 ± 0.43 kPa
vapor or sublimation pressure (363.33 K, Liquid): 70.34 ± 0.4 kPa
vapor or sublimation pressure (368.27 K, Liquid): 84.67 ± 0.49 kPa
vapor or sublimation pressure (373.26 K, Liquid): 101.68 ± 0.54 kPa
vapor or sublimation pressure (373.28 K, Liquid): 101.4 ± 0.53 kPa
vapor or sublimation pressure (373.37 K, Liquid): 102.01 ± 0.54 kPa
